Measurements published in US20260325533A1, “CDK INHIBITOR COMPOUNDS” (ALEKSIA THERAPEUTICS, INC., priority 2023, published 2026).
Where two headings read alike, the source gives them in different places.

What was measured:
Format in all cases: biochemical
[1] = biological target: CDK4/CCND3 (Homo sapiens, UniProt P11802); assay: CDK4 homogeneous time-resolved fluorescence (HTRF) kinase assay; settings: CDK4/CCND
Outline: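 Steps: compound plus 1.5 nM CDK4/CCND3, 20 min, 23 °C; add 1 mM ATP and 50 nM ULight-4E-BP1 (Thr37/46) peptide, 60 min; stop with 10 mM EDTA; add 2 nM Eu anti-phospho antibody, 60 min; read 665 nm. IC50 from 11-point half-log series starting 10 μM.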

[2] = biological target: CDK6/CCND1 (Homo sapiens, UniProt Q00534); assay: CDK6 homogeneous time-resolved fluorescence (HTRF) kinase assay; settings: CDK6/CCND, 1 mM ATP
Outline: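 Enzyme pre-incubated 20 min at 23 °C with compound, then reacted 60 min at 23 °C with 1 mM ATP and 50 nM ULight-4E-BP1 (Thr37/46) peptide; 1 nM enzyme, 1% DMSO. EDTA-stopped, Eu-anti-phospho antibody TR-FRET read (665 nm or 665/615 ratio); 11-point half-log titration from 10 μM gave IC50.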

[3] = biological target: CDK2/CCNE1 (Homo sapiens, UniProt P24941); assay: CDK2 homogeneous time-resolved fluorescence (HTRF) kinase assay; settings: CDK2/CCNE
Outline: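 3 nM CDK2/CCNE1 was preincubated with compound for 20 min at 23 °C in HEPES buffer (pH not stated), then reacted 60 min with 1 mM ATP and 50 nM ULight-4E-BP1 (Thr37/46) peptide. After EDTA stop, Eu-anti-phospho-4E-BP1 antibody (2 nM) was added for 60 min and TR-FRET read at 665 nm.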

[4] = biological target: CDK1/CCNB1 (Homo sapiens, UniProt P06493); assay: CDK1 homogeneous time-resolved fluorescence (HTRF) kinase assay; settings: CDK1/CCNB
Outline: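 Read-out: TR-FRET (Eu anti-phospho-4E-BP1 Thr37/46 antibody, 2 nM; 665 nm or 665/615 ratio) after 60 min phosphorylation of 50 nM ULight-peptide by 0.5 nM CDK1/CCNB1 at 1 mM ATP, 23 °C. Compound preincubated 20 min with enzyme; 1% DMSO.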

[5] = >250 nM, read-out: CDK4/CCND IC50, >250 nM
[6] = >250 nM, read-out: CDK6/CCND IC50, >250 nM
[7] = >250 nM, read-out: CDK1/CCNB IC50 >250 nM
[8] = <25 nM, read-out: CDK2/CCNE IC50, <25 nM
[9] = 25-250 nM, read-out: CDK2/CCNE IC50, 25-250 nM
[10] = 25-250 nM, read-out: CDK4/CCND IC50, 25-250 nM
[11] = 25-250 nM, read-out: CDK6/CCND IC50, 25-250 nM
[12] = 25-250 nM, read-out: CDK1/CCNB IC50, 25-250 nM

CDK1/CCNB1, sequence (P06493 whole entry): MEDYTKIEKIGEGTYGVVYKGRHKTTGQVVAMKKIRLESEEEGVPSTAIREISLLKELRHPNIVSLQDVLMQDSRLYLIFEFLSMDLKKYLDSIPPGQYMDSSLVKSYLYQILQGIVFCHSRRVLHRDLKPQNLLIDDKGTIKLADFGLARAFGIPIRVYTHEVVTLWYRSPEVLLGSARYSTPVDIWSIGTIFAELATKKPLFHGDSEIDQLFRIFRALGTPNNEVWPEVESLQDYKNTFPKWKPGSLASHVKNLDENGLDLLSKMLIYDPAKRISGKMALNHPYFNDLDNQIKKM
CDK1/CCNB1, sequence (P14635 whole entry partner): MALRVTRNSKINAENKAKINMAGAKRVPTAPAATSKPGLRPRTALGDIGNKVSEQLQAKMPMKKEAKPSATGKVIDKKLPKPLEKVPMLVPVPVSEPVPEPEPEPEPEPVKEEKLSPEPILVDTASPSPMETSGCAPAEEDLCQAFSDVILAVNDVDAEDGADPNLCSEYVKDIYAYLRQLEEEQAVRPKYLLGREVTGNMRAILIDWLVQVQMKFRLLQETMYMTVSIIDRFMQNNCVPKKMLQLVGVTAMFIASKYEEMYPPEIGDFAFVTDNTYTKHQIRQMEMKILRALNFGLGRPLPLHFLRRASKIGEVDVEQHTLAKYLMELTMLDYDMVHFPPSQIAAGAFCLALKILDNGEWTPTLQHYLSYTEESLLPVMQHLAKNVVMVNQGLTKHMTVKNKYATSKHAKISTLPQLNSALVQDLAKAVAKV
CDK4/CCND3, sequence (P11802 whole entry): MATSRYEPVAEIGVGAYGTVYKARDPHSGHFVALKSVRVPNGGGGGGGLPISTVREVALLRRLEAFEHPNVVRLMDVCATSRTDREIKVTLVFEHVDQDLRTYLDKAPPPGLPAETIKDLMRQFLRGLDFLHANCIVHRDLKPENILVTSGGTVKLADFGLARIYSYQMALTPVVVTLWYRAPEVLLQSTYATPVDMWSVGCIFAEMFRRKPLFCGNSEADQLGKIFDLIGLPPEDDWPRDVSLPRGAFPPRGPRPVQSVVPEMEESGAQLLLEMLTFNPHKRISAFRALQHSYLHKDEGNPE
CDK4/CCND3, sequence (P30281 whole entry partner): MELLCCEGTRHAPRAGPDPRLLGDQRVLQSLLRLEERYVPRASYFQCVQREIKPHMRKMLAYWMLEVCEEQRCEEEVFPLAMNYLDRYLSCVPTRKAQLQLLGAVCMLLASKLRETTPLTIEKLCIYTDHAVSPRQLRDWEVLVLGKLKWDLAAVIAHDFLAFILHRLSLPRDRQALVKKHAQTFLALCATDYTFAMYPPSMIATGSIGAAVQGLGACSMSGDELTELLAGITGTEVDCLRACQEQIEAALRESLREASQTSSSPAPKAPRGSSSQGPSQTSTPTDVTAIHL
CDK6/CCND1, sequence (Q00534 whole entry): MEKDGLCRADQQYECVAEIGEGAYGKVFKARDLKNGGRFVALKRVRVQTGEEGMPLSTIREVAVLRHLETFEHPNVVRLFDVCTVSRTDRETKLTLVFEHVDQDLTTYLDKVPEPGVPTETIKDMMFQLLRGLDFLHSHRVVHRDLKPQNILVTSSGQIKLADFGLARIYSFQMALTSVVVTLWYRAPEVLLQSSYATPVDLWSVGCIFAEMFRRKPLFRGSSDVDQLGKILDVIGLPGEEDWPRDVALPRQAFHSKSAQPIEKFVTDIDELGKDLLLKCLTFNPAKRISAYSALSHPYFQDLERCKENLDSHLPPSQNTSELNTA
CDK6/CCND1, sequence (P24385 whole entry partner): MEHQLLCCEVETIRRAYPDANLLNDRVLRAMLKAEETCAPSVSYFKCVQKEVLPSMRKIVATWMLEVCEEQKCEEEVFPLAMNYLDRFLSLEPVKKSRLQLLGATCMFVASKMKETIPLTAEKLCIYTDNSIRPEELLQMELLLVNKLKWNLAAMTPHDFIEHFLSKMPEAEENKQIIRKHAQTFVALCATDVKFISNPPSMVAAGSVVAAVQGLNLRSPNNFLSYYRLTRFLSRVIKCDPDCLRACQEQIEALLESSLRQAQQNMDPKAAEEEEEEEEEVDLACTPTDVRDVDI

Row | Compound | IC50 [1, 5] | IC50 [2, 6] | IC50 ([3]; >250 nM, read-out: CDK2/CCNE IC50, >250 nM) | IC50 [4, 7] | IC50 [3, 8] | IC50 [3, 9] | IC50 [1, 10] | IC50 [2, 11] | IC50 [4, 12]
1 | Cc1nc(-c2ccc(S(=O)(=O)Nc3ccc(Nc4cc5c(-c6ccc7c(cnn7CC(C)(C)O)c6C)nccc5cn4)cc3)s2)cs1 [Ex 782, N-(4-((5-(1-(2-hydroxy-2-methylpropyl)-4-methyl-1H-indazol-5-yl)-2,6-naphthyridin-3-yl)amino)phenyl)-5-(2-methylthiazol-4-yl)thiophene-2-sulfonamide] | > 0.25 µM | > 0.25 µM | > 0.25 µM | > 0.25 µM | – | – | – | – | –
2 | Cc1ncc(S(=O)(=O)Nc2ccc(Nc3cc4c(-c5ccc6c(cnn6CC(C)(C)O)c5C)nccc4cn3)cc2)s1 [Ex 783, N-(4-((5-(1-(2-hydroxy-2-methylpropyl)-4-methyl-1H-indazol-5-yl)-2,6-naphthyridin-3-yl)amino)phenyl)-2-methylthiazole-5-sulfonamide] | > 0.25 µM | > 0.25 µM | – | > 0.25 µM | < 0.025 µM | – | – | – | –
3 | Cc1c(-c2nccc3cnc(Nc4ccc(NS(=O)(=O)c5ccc(N6CCN(C)CC6)cc5)cc4)cc23)ccc2c1cnn2CC(C)(C)O [Ex 785, N-(4-((5-(1-(2-hydroxy-2-methylpropyl)-4-methyl-1H-indazol-5-yl)-2,6-naphthyridin-3-yl)amino)phenyl)-4-(4-methylpiperazin-1-yl)benzenesulfonamide] | > 0.25 µM | > 0.25 µM | – | > 0.25 µM | < 0.025 µM | – | – | – | –
4 | Cc1c(-c2nccc3cnc(Nc4ccc(NS(=O)(=O)c5ccc(N6CCOCC6)cc5)cc4)cc23)ccc2c1cnn2CC(C)(C)O [Ex 786, N-(4-((5-(1-(2-hydroxy-2-methylpropyl)-4-methyl-1H-indazol-5-yl)-2,6-naphthyridin-3-yl)amino)phenyl)-4-morpholinobenzenesulfonamide] | > 0.25 µM | > 0.25 µM | – | > 0.25 µM | – | 0.025 to 0.25 µM | – | – | –
5 | Cc1c(-c2nccc3cnc(Nc4ccc(NS(=O)(=O)c5ccccc5)cc4)cc23)ccc2c1cnn2CC(C)(C)O [Ex 787, N-(4-((5-(1-(2-hydroxy-2-methylpropyl)-4-methyl-1H-indazol-5-yl)-2,6-naphthyridin-3-yl)amino)phenyl)benzenesulfonamide] | > 0.25 µM | > 0.25 µM | – | > 0.25 µM | < 0.025 µM | – | – | – | –
6 | Cc1c(-c2nccc3cnc(Nc4ccc(S(=O)(=O)NC5CCOCC5)cc4)cc23)ccc2c1cnn2CC(C)(C)O [Ex 793, 4-((5-(1-(2-hydroxy-2-methylpropyl)-4-methyl-1H-indazol-5-yl)-2,6-naphthyridin-3-yl)amino)-N-(tetrahydro-2H-pyran-4-yl)benzenesulfonamide] | – | – | – | > 0.25 µM | < 0.025 µM | – | 0.025 to 0.25 µM | 0.025 to 0.25 µM | –
7 | Cc1c(-c2nccc3cnc(Nc4ccc(S(=O)(=O)NC5CC5)cc4)cc23)ccc2c1cnn2CC(C)(C)O [Ex 794, N-cyclopropyl-4-((5-(1-(2-hydroxy-2-methylpropyl)-4-methyl-1H-indazol-5-yl)-2,6-naphthyridin-3-yl)amino)benzenesulfonamide] | – | – | – | > 0.25 µM | < 0.025 µM | – | 0.025 to 0.25 µM | 0.025 to 0.25 µM | –
8 | CCNS(=O)(=O)c1ccc(Nc2cc3c(-c4ccc5c(cnn5CC(C)(C)O)c4C)nccc3cn2)cc1 [Ex 795, N-ethyl-4-((5-(1-(2-hydroxy-2-methylpropyl)-4-methyl-1H-indazol-5-yl)-2,6-naphthyridin-3-yl)amino)benzenesulfonamide] | – | – | – | > 0.25 µM | < 0.025 µM | – | 0.025 to 0.25 µM | 0.025 to 0.25 µM | –
9 | CNS(=O)(=O)c1ccc(Nc2cc3c(-c4ccc5c(cnn5CC(C)(C)O)c4C)nccc3cn2)cc1 [Ex 796, 4-((5-(1-(2-hydroxy-2-methylpropyl)-4-methyl-1H-indazol-5-yl)-2,6-naphthyridin-3-yl)amino)-N-methylbenzenesulfonamide] | – | – | – | – | < 0.025 µM | – | 0.025 to 0.25 µM | 0.025 to 0.25 µM | 0.025 to 0.25 µM
10 | Cc1c(-c2nccc3cnc(Nc4ccc(S(=O)(=O)Nc5ccncn5)cc4)cc23)ccc2c1cnn2CC(C)(C)O [Ex 797, 4-((5-(1-(2-hydroxy-2-methylpropyl)-4-methyl-1H-indazol-5-yl)-2,6-naphthyridin-3-yl)amino)-N-(pyrimidin-4-yl)benzenesulfonamide] | > 0.25 µM | > 0.25 µM | – | > 0.25 µM | – | 0.025 to 0.25 µM | – | – | –
11 | COc1ccc(NS(=O)(=O)c2ccc(Nc3cc4c(-c5ccc6c(cnn6CC(C)(C)O)c5C)nccc4cn3)cc2)nn1 [Ex 798, 4-((5-(1-(2-hydroxy-2-methylpropyl)-4-methyl-1H-indazol-5-yl)-2,6-naphthyridin-3-yl)amino)-N-(6-methoxypyridazin-3-yl)benzenesulfonamide] | – | – | – | > 0.25 µM | < 0.025 µM | – | 0.025 to 0.25 µM | 0.025 to 0.25 µM | –
12 | Cc1c(-c2nccc3cnc(Nc4ccc(S(=O)(=O)Nc5ccc(C(F)(F)F)nn5)cc4)cc23)ccc2c1cnn2CC(C)(C)O [Ex 799, 4-((5-(1-(2-hydroxy-2-methylpropyl)-4-methyl-1H-indazol-5-yl)-2,6-naphthyridin-3-yl)amino)-N-(6-(trifluoromethyl)pyridazin-3-yl)benzenesulfonamide] | > 0.25 µM | > 0.25 µM | – | > 0.25 µM | < 0.025 µM | – | – | – | –
13 | Cc1ccc(NS(=O)(=O)c2ccc(Nc3cc4c(-c5ccc6c(cnn6CC(C)(C)O)c5C)nccc4cn3)cc2)nn1 [Ex 800, 4-((5-(1-(2-hydroxy-2-methylpropyl)-4-methyl-1H-indazol-5-yl)-2,6-naphthyridin-3-yl)amino)-N-(6-methylpyridazin-3-yl)benzenesulfonamide] | – | – | – | – | < 0.025 µM | – | 0.025 to 0.25 µM | 0.025 to 0.25 µM | 0.025 to 0.25 µM
14 | Cc1c(-c2nccc3cnc(Nc4ccc(S(=O)(=O)Nc5cccc(C(C)(C)O)c5)cc4)cc23)ccc2c1cnn2CC(C)(C)O [Ex 802, 4-((5-(1-(2-hydroxy-2-methylpropyl)-4-methyl-1H-indazol-5-yl)-2,6-naphthyridin-3-yl)amino)-N-(3-(2-hydroxypropan-2-yl)phenyl)benzenesulfonamide] | > 0.25 µM | > 0.25 µM | – | > 0.25 µM | < 0.025 µM | – | – | – | –
15 | Cc1c(-c2nccc3cnc(Nc4ccc(S(=O)(=O)Nc5cccc(N6CCOCC6)c5)cc4)cc23)ccc2c1cnn2CC(C)(C)O [Ex 803, 4-((5-(1-(2-hydroxy-2-methylpropyl)-4-methyl-1H-indazol-5-yl)-2,6-naphthyridin-3-yl)amino)-N-(3-morpholinophenyl)benzenesulfonamide] | > 0.25 µM | > 0.25 µM | – | > 0.25 µM | < 0.025 µM | – | – | – | –
16 | COc1cccc(NS(=O)(=O)c2ccc(Nc3cc4c(-c5ccc6c(cnn6CC(C)(C)O)c5C)nccc4cn3)cc2)c1 [Ex 804, 4-((5-(1-(2-hydroxy-2-methylpropyl)-4-methyl-1H-indazol-5-yl)-2,6-naphthyridin-3-yl)amino)-N-(3-methoxyphenyl)benzenesulfonamide] | > 0.25 µM | > 0.25 µM | – | > 0.25 µM | < 0.025 µM | – | – | – | –
17 | COc1cc(NS(=O)(=O)c2ccc(Nc3cc4c(-c5ccc6c(cnn6CC(C)(C)O)c5C)nccc4cn3)cc2)cc(OC)c1 [Ex 805, N-(3,5-dimethoxyphenyl)-4-((5-(1-(2-hydroxy-2-methylpropyl)-4-methyl-1H-indazol-5-yl)-2,6-naphthyridin-3-yl)amino)benzenesulfonamide] | > 0.25 µM | > 0.25 µM | – | > 0.25 µM | < 0.025 µM | – | – | – | –
18 | Cc1c(-c2nccc3cnc(Nc4ccc(S(=O)(=O)Nc5cccc(C(F)(F)F)c5)cc4)cc23)ccc2c1cnn2CC(C)(C)O [Ex 806, 4-((5-(1-(2-hydroxy-2-methylpropyl)-4-methyl-1H-indazol-5-yl)-2,6-naphthyridin-3-yl)amino)-N-(3-(trifluoromethyl)phenyl)benzenesulfonamide] | > 0.25 µM | > 0.25 µM | – | > 0.25 µM | – | 0.025 to 0.25 µM | – | – | –
19 | Cc1cccc(NS(=O)(=O)c2ccc(Nc3cc4c(-c5ccc6c(cnn6CC(C)(C)O)c5C)nccc4cn3)cc2)c1 [Ex 807, 4-((5-(1-(2-hydroxy-2-methylpropyl)-4-methyl-1H-indazol-5-yl)-2,6-naphthyridin-3-yl)amino)-N-(m-tolyl)benzenesulfonamide] | > 0.25 µM | > 0.25 µM | – | > 0.25 µM | < 0.025 µM | – | – | – | –
